Source: patent US8895587B2, “Insecticidal compounds based on arylthioacetamide derivatives” (Syngenta Participations AG, priority 2011, dated 2014)

Experiments:
Format in all cases: in vivo
[1] = system: Plutella xylostella; assay: Plutella xylostella (diamond back moth) larval test on artificial diet; conditions: 144 h; for pest or weed control at 0.8 ppm: application rate 0.8 ppm; for pest or weed control at 3 ppm: application rate 3 ppm; for pest or weed control at 0.2 ppm: application rate 0.2 ppm
[2] = system: Heliothis virescens; assay: Heliothis virescens (tobacco budworm) egg/larval test on artificial diet; conditions: 96 h; for pest or weed control at 0.8 ppm: application rate 0.8 ppm; for pest or weed control at 3 ppm: application rate 3 ppm; for pest or weed control at 0.2 ppm: application rate 0.2 ppm
[3] = system: Diabrotica balteata; assay: Diabrotica balteata (corn root worm) larval test on artificial diet; conditions: 120 h, read-out: Control/% Diabrotica balteata Corn rootworm; for pest or weed control at 3 ppm: application rate 3 ppm; for pest or weed control at 12 ppm: application rate 12 ppm; for pest or weed control at 50 ppm: application rate 50 ppm; for pest or weed control at 0.8 ppm: application rate 0.8 ppm
[4] = system: Tetranychus urticae; assay: Tetranychus urticae (two-spotted spider mite) leaf disc test; conditions: foliar, 192 h, application rate 200 ppm, bean leaf discs, 8 days
Description: Bean leaf discs on agar in 24-well microtiter plates were sprayed with test solutions at an application rate of 200 ppm. After drying, the leaf discs are infested with mite populations of mixed ages. 8 days later, discs are checked for egg mortality, larval mortality, and adult mortality.

[5] = system: Myzus persicae; assay: Myzus persicae (green peach aphid), systemic test; conditions: 144 h, application rate 12.5 ppm, roots of pea seedlings in test solution, 6 days
Description: Myzus persicae (Green peach aphid), systemic test: Roots of pea seedlings, infested with an aphid population of mixed ages, are placed directly in the test solutions at an application rate of 12.5 ppm. 6 days after introduction, samples are checked for mortality and special effects on the plant. The following compounds gave at least 80% control of Myzus persicae: […]

[6] = system: Heliothis virescens; assay: Heliothis virescens (tobacco budworm) egg/larval test on artificial diet; conditions: 96 h, application rate 200 ppm (concentration in well 18 ppm), eggs on artificial diet, 4 days
Procedure: Eggs (0-24 h old) were placed in 24-well microtiter plate on artificial diet and treated with test solutions at an application rate of 200 ppm (concentration in well 18 ppm) by pipetting. After an incubation period of 4 days, samples were checked for egg mortality, larval mortality, and growth regulation.

[7] = system: Thrips tabaci; assay: Thrips tabaci (onion thrips) leaf disc test; conditions: foliar, 168 h, application rate 200 ppm, sunflower leaf discs, 7 days
Procedure: Sunflower leaf discs were placed on agar in a 24-well microtiter plate and sprayed with test solutions at an application rate of 200 ppm. After drying, the leaf discs were infested with a thrips population of mixed ages. After an incubation period of 7 days, samples were checked for mortality.

[8] = system: Plutella xylostella; assay: Plutella xylostella (diamond back moth) larval test on artificial diet; conditions: 144 h, application rate 200 ppm (concentration in well 18 ppm), L2 larvae on artificial diet, 6 days
Procedure: (§1) 24-well microtiter plate (MTP) with artificial diet was treated with test solutions at an application rate of 200 ppm (concentration in well 18 ppm) by pipetting. After drying, the MTP's were infested with L2 larvae (7-12 per well). After an incubation period of 6 days, samples were checked for larval mortality and growth regulation.

[9] = system: Diabrotica balteata; assay: Diabrotica balteata (corn root worm) larval test on artificial diet; conditions: 120 h, application rate 200 ppm (concentration in well 18 ppm), L2 larvae on artificial diet, 5 days
Procedure: as §1, with “Diabrotica balteata (Corn Root Worm): A 24-well” for “24-well”, “(6-10” for “(7-12”, “5” for “6”

[10] = system: Spodoptera littoralis; assay: Spodoptera littoralis (Egyptian cotton leafworm) leaf disc test; conditions: foliar, 72 h, application rate 200 ppm, cotton leaf discs, L1 larvae, mortality, feeding behavior, growth regulation 3 DAT
Description: Spodoptera littoralis (Egyptian Cotton Leafworm): Cotton leaf discs were placed on agar in a 24-well microtiter plate and sprayed with test solutions at an application rate of 200 ppm. After drying, the leaf discs were infested with 5 L1 larvae. The samples were checked for mortality, feeding behavior, and growth regulation 3 days after treatment (DAT).

`Cc1cc(C2=NOC(c3cc(Cl)cc(Cl)c3)(C(F)(F)F)C2)ccc1[S+](C)[O-]` (stereo not drawn) showed a pest or weed control at 0.8 ppm [1] of 0%, a pest or weed control at 3 ppm [1] of 0% and a pest or weed control at 0.8 ppm [2] of 0%. For the same compound, the pest or weed control at 3 ppm [2] was 0%, the pest or weed control at 3 ppm [3] was 0% and the pest or weed control at 12 ppm [3] was 0%.
In the case of `CSc1ccc(C2=NOC(c3cc(Cl)cc(Cl)c3)(C(F)(F)F)C2)cc1C` (stereo not drawn) [Compound 1-020], the pest or weed control at 0.8 ppm [1] is reported as 0%, the pest or weed control at 3 ppm [1] is reported as 0% and the pest or weed control at 0.8 ppm [2] is reported as 0%. The pest or weed control at 3 ppm [2] was 0% and the pest or weed control at 12 ppm [3] was 20%.
For `Cc1cc(C2=NOC(c3cc(Cl)cc(Cl)c3)(C(F)(F)F)C2)ccc1S(C)(=O)=O` (stereo not drawn) [Compound 1-021], the pest or weed control at 0.8 ppm [1] was 0%, the pest or weed control at 3 ppm [1] was 0% and the pest or weed control at 0.8 ppm [2] was 0%. The pest or weed control at 3 ppm [2] was 0%, the pest or weed control at 12 ppm [3] was 0% and the pest or weed control at 50 ppm [3] was 90%.
In the case of `O=C(CSc1ccc(C2=NOC(c3cc(Cl)cc(Cl)c3)(C(F)(F)F)C2)cc1)NCC(F)(F)F` (stereo not drawn) [Compound 1-028], the pest or weed control at 0.2 ppm [1] is reported as 0%, the pest or weed control at 0.8 ppm [1] is reported as 0% and the pest or weed control at 3 ppm [1] is reported as 50%. It also gave a pest or weed control at 0.2 ppm [2] of 0%, a pest or weed control at 0.8 ppm [2] of 0% and a pest or weed control at 3 ppm [2] of 90%. It also gave a pest or weed control at 0.8 ppm [3] of 0%, a pest or weed control at 3 ppm [3] of 20% and a pest or weed control at 12 ppm [3] of 100%.
`O=C(C[S+]([O-])c1ccc(C2=NOC(c3cc(Cl)cc(Cl)c3)(C(F)(F)F)C2)cc1)NCC(F)(F)F` (stereo not drawn) [Compound 1-029] showed a pest or weed control at 0.8 ppm [1] of 0%, a pest or weed control at 3 ppm [1] of 80% and a pest or weed control at 0.8 ppm [2] of 0%. For the same compound, the pest or weed control at 3 ppm [2] was 80%, the pest or weed control at 12 ppm [3] was 50% and the pest or weed control at 50 ppm [3] was 100%.
In the case of `O=C(CS(=O)(=O)c1ccc(C2=NOC(c3cc(Cl)cc(Cl)c3)(C(F)(F)F)C2)cc1)NCC(F)(F)F` (stereo not drawn) [Compound 1-030], the pest or weed control at 0.8 ppm [1] is reported as 0%, the pest or weed control at 3 ppm [1] is reported as 0% and the pest or weed control at 0.8 ppm [2] is reported as 0%. For the same compound, the pest or weed control at 3 ppm [2] was 80%, the pest or weed control at 12 ppm [3] was 50% and the pest or weed control at 50 ppm [3] was 100%.
In the case of `Cc1cc(C2=NO[C@@](c3cc(Cl)cc(Cl)c3)(C(F)(F)F)C2)ccc1SCC(=O)NCC(F)(F)F` [Compound C1, 2-{4-[(S)-5-(3,5-Dichloro-phenyl)-5-trifluoromethyl-4,5-dihydro-isoxazol-3-yl]-2-methyl-phenylsulfanyl}-N-(2,2,2-trifluoro-ethyl)-acetamide], the pest or weed control at 200 ppm [4] is reported as ≥ 80%, the pest or weed control at 12.5 ppm [5] is reported as ≥ 80% and the pest or weed control at 200 ppm [6] is reported as ≥ 80%. For the same compound, the pest or weed control at 0.2 ppm [1] was 80%, the pest or weed control at 0.8 ppm [1] was 100% and the pest or weed control at 3 ppm [1] was 100%. The pest or weed control at 200 ppm [7] was ≥ 80%, the pest or weed control at 0.2 ppm [2] was 80% and the pest or weed control at 0.8 ppm [2] was 80%. The pest or weed control at 3 ppm [2] was 100%, the pest or weed control at 200 ppm [8] was ≥ 80% and the pest or weed control at 0.8 ppm [3] was 80%. For the same compound, the pest or weed control at 3 ppm [3] was 100% and the pest or weed control at 12 ppm [3] was 100%.
`O=C(CSc1ccc(C2=NO[C@@](c3cc(Cl)cc(Cl)c3)(C(F)(F)F)C2)cc1F)NCC(F)(F)F` [Compound C63, 2-[4-[(5S)-5-(3,5-dichlorophenyl)-5-(trifluoromethyl)-4H-isoxazol-3-yl]-2-fluoro-phenyl]sulfanyl-N-(2,2,2-trifluoroethyl)acetamide] was tested, and the pest or weed control at 200 ppm [4] was ≥ 80%, the pest or weed control at 12.5 ppm [5] was ≥ 80% and the pest or weed control at 200 ppm [6] was ≥ 80%. The pest or weed control at 200 ppm [7] was ≥ 80%, the pest or weed control at 200 ppm [8] was ≥ 80% and the pest or weed control at 200 ppm [9] was ≥ 80%. For the same compound, the pest or weed control at 200 ppm [10] was ≥ 80%.
`O=C(C[S+]([O-])c1ccc(C2=NO[C@@](c3cc(Cl)cc(Cl)c3)(C(F)(F)F)C2)cc1F)NCC(F)(F)F` (stereo partly drawn) [Compound C64, 2-[4-[(5S)-5-(3,5-dichlorophenyl)-5-(trifluoromethyl)-4H-isoxazol-3-yl]-2-fluoro-phenyl]sulfinyl-N-(2,2,2-trifluoroethyl)acetamide] was tested, and the pest or weed control at 200 ppm [4] was ≥ 80%, the pest or weed control at 12.5 ppm [5] was ≥ 80% and the pest or weed control at 200 ppm [6] was ≥ 80%. For the same compound, the pest or weed control at 200 ppm [7] was ≥ 80%, the pest or weed control at 200 ppm [8] was ≥ 80% and the pest or weed control at 200 ppm [9] was ≥ 80%. For the same compound, the pest or weed control at 200 ppm [10] was ≥ 80%.
For `O=C(CSc1ccc(C2=NO[C@@](c3cc(Cl)c(Cl)c(Cl)c3)(C(F)(F)F)C2)cc1Cl)NCC(F)(F)F` [Compound D1, 2-[2-chloro-4-[(5S)-5-(3,4,5-trichlorophenyl)-5-(trifluoromethyl)-4H-isoxazol-3-yl]phenyl]sulfanyl-N-(2,2,2-trifluoroethyl)acetamide], the pest or weed control at 200 ppm [4] was ≥ 80%, the pest or weed control at 12.5 ppm [5] was ≥ 80% and the pest or weed control at 200 ppm [6] was ≥ 80%. For the same compound, the pest or weed control at 200 ppm [7] was ≥ 80%, the pest or weed control at 200 ppm [8] was ≥ 80% and the pest or weed control at 200 ppm [9] was ≥ 80%. The pest or weed control at 200 ppm [10] was ≥ 80%.
With `O=C(C[S+]([O-])c1ccc(C2=NO[C@@](c3cc(Cl)c(Cl)c(Cl)c3)(C(F)(F)F)C2)cc1Cl)NCC(F)(F)F` (stereo partly drawn) [Compound D2, 2-[2-chloro-4-[(5S)-5-(3,4,5-trichlorophenyl)-5-(trifluoromethyl)-4H-isoxazol-3-yl]phenyl]sulfinyl-N-(2,2,2-trifluoroethyl)acetamide] the pest or weed control at 200 ppm [4] was ≥ 80%, the pest or weed control at 12.5 ppm [5] was ≥ 80% and the pest or weed control at 200 ppm [6] was ≥ 80%. The pest or weed control at 200 ppm [7] was ≥ 80%, the pest or weed control at 200 ppm [8] was ≥ 80% and the pest or weed control at 200 ppm [9] was ≥ 80%. For the same compound, the pest or weed control at 200 ppm [10] was ≥ 80%.
In the case of `O=C(CS(=O)(=O)c1ccc(C2=NO[C@@](c3cc(Cl)c(Cl)c(Cl)c3)(C(F)(F)F)C2)cc1Cl)NCC(F)(F)F` [Compound D3, 2-[2-chloro-4-[(5S)-5-(3,4,5-trichlorophenyl)-5-(trifluoromethyl)-4H-isoxazol-3-yl]phenyl]sulfonyl-N-(2,2,2-trifluoroethyl)acetamide], the pest or weed control at 200 ppm [4] is reported as ≥ 80%, the pest or weed control at 12.5 ppm [5] is reported as ≥ 80% and the pest or weed control at 200 ppm [6] is reported as ≥ 80%. The pest or weed control at 200 ppm [7] was ≥ 80%, the pest or weed control at 200 ppm [8] was ≥ 80% and the pest or weed control at 200 ppm [9] was ≥ 80%. For the same compound, the pest or weed control at 200 ppm [10] was ≥ 80%.
For `O=C(CSc1ccc(C2=NO[C@@](c3cc(Cl)c(Cl)c(Cl)c3)(C(F)(F)F)C2)cc1Cl)NC1CC1` [Compound D4, 2-[2-chloro-4-[(5S)-5-(3,4,5-trichlorophenyl)-5-(trifluoromethyl)-4H-isoxazol-3-yl]phenyl]sulfanyl-N-cyclopropyl-acetamide], the pest or weed control at 200 ppm [4] was ≥ 80%, the pest or weed control at 12.5 ppm [5] was ≥ 80% and the pest or weed control at 200 ppm [6] was ≥ 80%. The pest or weed control at 200 ppm [7] was ≥ 80%, the pest or weed control at 200 ppm [8] was ≥ 80% and the pest or weed control at 200 ppm [9] was ≥ 80%. For the same compound, the pest or weed control at 200 ppm [10] was ≥ 80%.
In the case of `O=C(CSc1ccc(C2=NOC(c3cc(Cl)cc(Cl)c3)(C(F)(F)F)C2)c2ccccc12)NCC(F)(F)F` (stereo not drawn) [Compound G1, 2-[[4-[5-(3,5-dichlorophenyl)-5-(trifluoromethyl)-4H-isoxazol-3-yl]-1-naphthyl]sulfanyl]-N-(2,2,2-trifluoroethyl)acetamide], the pest or weed control at 200 ppm [4] is reported as ≥ 80%, the pest or weed control at 12.5 ppm [5] is reported as ≥ 80% and the pest or weed control at 200 ppm [6] is reported as ≥ 80%. The pest or weed control at 200 ppm [7] was ≥ 80%, the pest or weed control at 200 ppm [8] was ≥ 80% and the pest or weed control at 200 ppm [9] was ≥ 80%. For the same compound, the pest or weed control at 200 ppm [10] was ≥ 80%.
`O=C(CSc1ccc(C2=NO[C@@](c3cc(Cl)cc(Cl)c3)(C(F)(F)F)C2)c2ccccc12)NCC(F)(F)F` [Compound G2, 2-[[4-[5-(S)-(3,5-dichlorophenyl)-5-(trifluoromethyl)-4H-isoxazol-3-yl]-1-naphthyl]sulfanyl]-N-(2,2,2-trifluoroethyl)acetamide] was tested, and the pest or weed control at 200 ppm [4] was ≥ 80%, the pest or weed control at 12.5 ppm [5] was ≥ 80% and the pest or weed control at 200 ppm [6] was ≥ 80%. For the same compound, the pest or weed control at 200 ppm [7] was ≥ 80%, the pest or weed control at 200 ppm [8] was ≥ 80% and the pest or weed control at 200 ppm [9] was ≥ 80%. The pest or weed control at 200 ppm [10] was ≥ 80%.
